The numbers were not newly measured in patent US20240368262A1, “A MYOSTATIN PATHWAY INHIBITOR IN COMBINATION WITH A GLP-1 PATHWAY ACTIVATOR FOR USE IN TREATING METABOLIC DISORDERS” (SCHOLAR ROCK, INC., priority 2021, published 2024), which cites them from elsewhere.

The data set relates to GIP and GLP-1 receptor. The following applies: Rosenstock et al., Lancet; cited from earlier work.

Regarding Tirzepatide, the body weight entry is reported as “reduce body weight” and the glycemic control result was “improve glycemic control”.
